US20150017628A1, “CRYOPRESERVATION OF CELLS IN ABSENCE OF VITRIFICATION INDUCING AGENTS” (UNIVERSITY OF WARWICK, priority 2012, published 2015)

Legend:
[1] = Ice recrystallisation inhibition (IRI) modified splat assay; type: physicochemical; conditions: at these concentrations (1-10 mg·mL^-1)
Procedure: Determination of RI activity was achieved using a modified “splat” assay. A 10 μL droplet of the analyte solution in PBS was expelled at a fixed height of 2 m onto a glass coverslip placed upon a pre-cooled (CO2(s)) aluminium plate. This was immediately transferred onto the pre-cooled microscope stage (−6° C.) and left to anneal for 30 minutes. Photographs of the wafer were taken at both 0 and 30 minutes through crossed polarizers. A large number of the ice crystals (30+) were then measured to find the largest grain size dimension along any axis. The average largest value from 3 individual photographs was calculated to give the mean largest grain size (MLGS). Reported errors are the coefficient of variation (standard deviation/mean) from a minimum of 3 individual data sets. Values are reported as the MLGS relative to that obtained for PBS alone.
A polynucleated wafer of ice crystals (each ice crystal is <30 μm) was made from phosphate buffered saline (PBS) solutions of the additive being investigated. Following annealing at −6° C. for 30 minutes, the wafers were imaged through crossed polarisers and the size of the crystals measured. In addition to PVA, two common biocompatible polymers were also assessed for IRI activity; dextran and poly(ethylene glycol) (PEG, FIG. 1C), as they are both commonly added to cryopreservative solutions.

erythrocytes = assay: Cryoprotectant haemocompatibility / cytotoxicity (haemolysis of erythrocytes); type: cell-based, ovine
Procedure: A 40 μL aliquot of the thawed erythrocyte solution was added to 400 μL PBS and centrifuged (1000×g, 5 min, 4° C.) to remove intact cells. 50 μL of the supernatant was added to 150 μL PBS in a 96-well plate and an absorbance measurement at 450 nm recorded to assess the extent of haemoglobin leakage. 100% haemolysis samples were prepared by osmotic shock through addition of 500 μL H2O to 500 μL erythrocytes suspension and the sample was vortexed vigorously. Control (0% haemolysis) samples were prepared by the addition of 500 μL PBS to 500 μL erythrocytes and left at room temperature (25° C.) for 60 minutes. All measurements were repeated a minimum of 5 times and the reported errors are the coefficient of variation (standard deviation/mean).
Erythrocytes were prepared as described above. A 500 μL aliquot of erythrocytes was added to 500 μL of the polymer or DMSO in PBS and mixed by inversion. The samples were incubated at 25° C. for 120 minutes before analysis. Haemolysis was measured in the same method as used for cryopreservation studies (above). All measurements were repeated in triplicate.
Fresh ovine (defibrinated) erythrocytes were prepared in an identical manner as aforementioned. Samples were prepared in triplicate. A 500 μL aliquot of erythrocytes was added to 500 μL 2× final concentration cryoprotectant in PBS and mixed by inversion. The samples were incubated at room temperature for 120 minutes before analysis. […] This is in contrast to some examples that defined toxicity only at levels exceeding 10% haemolysis. Concentrations higher than this were not deemed necessary for assessment.

Row | SMILES | IRI activity of common vitrification solvents [1] | concentration above which significant haemolysis was observed (erythrocytes; 120 minutes at 25° C.) | concentration above which significant haemolysis was observed (erythrocytes; 120 minutes at room temperature, significant haemolysis >5%) | haemolytic property of common cryoprotectant (erythrocytes; general statement)
1 | C[S+](C)[O-] [DMSO, dimethylsulfoxide] | little or no IRI activity | Above 1.5 w/v % | Above 1.5 wt % | strongly haemolytic
2 | OCC(O)CO [glycerol] | little or no IRI activity | – | – | –
